Active and inactive are the calls of the source. The rule behind the calls is not given here.
Assays:
[1] = test system: Aspergillus fumigatus; assay: Antifungal activity against Aspergillus fumigatus; assay type: functional, organism-based
[2] = test system: Candida albicans; assay: Antifungal activity against Candida albicans; assay type: functional, organism-based
[3] = test system: Bacillus subtilis; assay: Antibacterial activity against Bacillus subtilis; assay type: functional, organism-based
[4] = test system: Penicillium chrysogenum; assay: Antifungal activity against Penicillium chrysogenum; assay type: functional, organism-based
[5] = biological target: Human immunodeficiency virus type 1 reverse transcriptase (Human immunodeficiency virus 1) (UniProt Q72547); assay: Inhibition of Human immunodeficiency virus 1 RT assessed at 20 ug after 1 hr by spectrophotometric analysis
[6] = test system: Aspergillus niger; assay: Antifungal activity against Aspergillus niger; assay type: functional, organism-based
[7] = test system: Salmonella typhi; assay: Antibacterial activity against Salmonella enterica subsp. enterica serovar Typhi; assay type: functional, organism-based

Structure (SMILES) | Activity [1] | Activity [2] | Activity [3] | Activity [4] | inhibition [5] | Activity [6] | Activity [7]
CC(=O)N1CCN(c2ccc(OCC3COC(Cn4ccnc4)(c4ccc(Cl)cc4Cl)O3)cc2)CC1 (centres undefined) | Active | Active |  |  |  |  | 
CCOC(=O)/C(O)=C/C(=O)c1cn(Cc2ccc(Cl)cc2Cl)c2cc(OC)cc(OC)c12 |  | Active | Active | Active | 87.6% |  | 
COc1cc2c(C(=O)/C=C(\O)C(=O)O)cn(Cc3ccc(Cl)cc3Cl)c2cc1OC |  |  |  |  | 78.6% |  | 
CCOC(=O)/C(O)=C/C(=O)c1cn(Cc2ccc(Cl)cc2Cl)c2ccc(OC)c(OC)c12 |  |  | Active | Active | 87.7% | Active | 
CCOC(=O)/C(O)=C/C(=O)c1cn(Cc2ccc(Cl)cc2Cl)c2c(OC)ccc(OC)c12 | Active | Active |  | Active | 86.5% | Active | Active
COc1ccc2c(c(C(=O)/C=C(\O)C(=O)O)cn2Cc2ccc(Cl)cc2Cl)c1OC |  |  |  |  | 78.2% |  | 
COc1cc(OC)c2c(C(=O)/C=C(\O)C(=O)O)cn(Cc3ccc(Cl)cc3Cl)c2c1 |  |  |  |  | 79.2% |  | 
CCOC(=O)/C(O)=C/C(=O)c1cn(Cc2ccc(Cl)cc2Cl)c2cc(OC)c(OC)cc12 | Active | Active | Active |  | 80.9% |  | 
COc1ccc(OC)c2c1c(C(=O)/C=C(\O)C(=O)O)cn2Cc1ccc(Cl)cc1Cl |  |  |  |  | 82.8% |  | 

— ChEMBL document CHEMBL3045871, “Synthesis, biological screening and ADME prediction of benzylindole derivatives as novel anti-HIV-1, anti-fungal and anti-bacterial agents” (Med Chem Res, 2013)
